# Columns and labels:
# [1] = target: Calcium/calmodulin-dependent protein kinase type 1 (Homo sapiens) (UniProt Q14012); experiment: Inhibition of human recombinant CaMK1a at 40 nM in presence of ATP by radiometric assay relative to control
# [2] = target: Serine/threonine-protein kinase 26 (Homo sapiens) (UniProt Q9P289); experiment: Inhibition of human recombinant MST4 at 40 nM in presence of ATP by radiometric assay relative to control
# [3] = target: Tyrosine-protein kinase JAK1 (Homo sapiens) (UniProt P23458); experiment: Inhibition of human recombinant JAK1 at 40 nM related to control ULK1
# [4] = target: Serine/threonine-protein kinase pim-2 (Homo sapiens) (UniProt Q9P1W9); experiment: Inhibition of human recombinant PIM2 at 40 nM in presence of ATP by radiometric assay relative to control
# [5] = target: Serine/threonine-protein kinase WNK2 (Homo sapiens) (UniProt Q9Y3S1); experiment: Inhibition of human recombinant Wnk2 at 40 nM in presence of ATP by radiometric assay relative to control
# [6] = target: Serine/threonine-protein kinase B-raf (Homo sapiens) (UniProt P15056); experiment: Inhibition of human recombinant BRAF at 500 nM related to control ULK1
# [7] = target: T1, Serine/threonine-protein kinase Nek11 (Homo sapiens) (UniProt Q8NG66); experiment: Inhibition of human recombinant NEK11 at 500 nM in presence of ATP by radiometric assay relative to control
# T1 sequence (whole entry): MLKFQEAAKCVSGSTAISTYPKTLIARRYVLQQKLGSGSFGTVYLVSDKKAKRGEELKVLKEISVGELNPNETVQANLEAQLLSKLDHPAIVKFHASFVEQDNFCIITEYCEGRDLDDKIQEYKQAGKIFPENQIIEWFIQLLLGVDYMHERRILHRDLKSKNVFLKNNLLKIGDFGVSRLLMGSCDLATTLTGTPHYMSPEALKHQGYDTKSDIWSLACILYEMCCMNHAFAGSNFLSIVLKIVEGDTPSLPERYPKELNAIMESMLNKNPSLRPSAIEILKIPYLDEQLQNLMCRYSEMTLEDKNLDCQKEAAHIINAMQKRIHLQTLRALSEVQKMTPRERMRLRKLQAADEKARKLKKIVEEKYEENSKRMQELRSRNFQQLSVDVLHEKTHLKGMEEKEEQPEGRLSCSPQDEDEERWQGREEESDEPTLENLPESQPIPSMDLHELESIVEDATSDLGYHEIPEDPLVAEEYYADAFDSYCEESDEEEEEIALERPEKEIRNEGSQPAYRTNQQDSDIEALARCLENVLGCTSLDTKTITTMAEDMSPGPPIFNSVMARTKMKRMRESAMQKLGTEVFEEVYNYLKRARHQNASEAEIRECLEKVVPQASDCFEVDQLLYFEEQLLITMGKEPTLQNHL
# [8] = target: Calcium/calmodulin-dependent protein kinase type II subunit gamma (Homo sapiens) (UniProt Q13555); experiment: Inhibition of human recombinant CaMK2g at 15 nM in presence of ATP by radiometric assay relative to control
# [9] = target: Serine/threonine-protein kinase PAK 4 (Homo sapiens) (UniProt O96013); experiment: Inhibition of human recombinant PAK4 at 15 nM related to control ULK1
# [10] = target: Tyrosine-protein kinase Blk (Homo sapiens) (UniProt P51451); experiment: Inhibition of human recombinant BLK at 15 nM related to control ULK1
# [11] = target: T2, Serine/threonine-protein kinase TAO1 (Homo sapiens) (UniProt Q7L7X3); experiment: Inhibition of human recombinant TAO1 at 15 nM in presence of ATP by radiometric assay relative to control
# T2 sequence (whole entry): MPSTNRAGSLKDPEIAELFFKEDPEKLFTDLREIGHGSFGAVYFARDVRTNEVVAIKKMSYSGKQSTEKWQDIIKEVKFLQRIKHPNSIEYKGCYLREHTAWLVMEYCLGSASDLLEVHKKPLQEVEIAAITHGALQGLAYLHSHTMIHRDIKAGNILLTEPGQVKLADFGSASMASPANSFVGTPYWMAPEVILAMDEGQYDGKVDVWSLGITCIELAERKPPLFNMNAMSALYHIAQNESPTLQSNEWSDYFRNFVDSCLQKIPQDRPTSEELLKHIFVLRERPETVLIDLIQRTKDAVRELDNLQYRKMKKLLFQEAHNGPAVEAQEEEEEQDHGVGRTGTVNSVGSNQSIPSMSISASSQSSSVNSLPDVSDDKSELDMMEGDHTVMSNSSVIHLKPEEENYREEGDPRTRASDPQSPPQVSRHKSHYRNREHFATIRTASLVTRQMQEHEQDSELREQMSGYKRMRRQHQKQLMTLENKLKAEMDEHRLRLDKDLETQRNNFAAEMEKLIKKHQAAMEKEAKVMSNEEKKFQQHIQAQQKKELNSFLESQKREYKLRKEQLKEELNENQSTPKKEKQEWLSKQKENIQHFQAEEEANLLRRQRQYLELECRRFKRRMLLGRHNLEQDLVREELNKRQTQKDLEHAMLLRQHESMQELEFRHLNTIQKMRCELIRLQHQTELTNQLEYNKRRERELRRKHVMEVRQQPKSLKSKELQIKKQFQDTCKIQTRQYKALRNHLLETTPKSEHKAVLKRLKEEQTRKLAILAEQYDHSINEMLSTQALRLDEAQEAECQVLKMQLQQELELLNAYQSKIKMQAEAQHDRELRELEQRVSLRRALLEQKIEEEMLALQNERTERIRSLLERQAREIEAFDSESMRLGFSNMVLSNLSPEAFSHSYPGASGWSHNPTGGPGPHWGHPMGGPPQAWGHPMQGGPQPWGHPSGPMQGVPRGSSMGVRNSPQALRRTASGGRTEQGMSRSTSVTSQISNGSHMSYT
# Serine/threonine-protein kinase 26 (Homo sapiens), sequence (Q9P289 2-416 limits assumed): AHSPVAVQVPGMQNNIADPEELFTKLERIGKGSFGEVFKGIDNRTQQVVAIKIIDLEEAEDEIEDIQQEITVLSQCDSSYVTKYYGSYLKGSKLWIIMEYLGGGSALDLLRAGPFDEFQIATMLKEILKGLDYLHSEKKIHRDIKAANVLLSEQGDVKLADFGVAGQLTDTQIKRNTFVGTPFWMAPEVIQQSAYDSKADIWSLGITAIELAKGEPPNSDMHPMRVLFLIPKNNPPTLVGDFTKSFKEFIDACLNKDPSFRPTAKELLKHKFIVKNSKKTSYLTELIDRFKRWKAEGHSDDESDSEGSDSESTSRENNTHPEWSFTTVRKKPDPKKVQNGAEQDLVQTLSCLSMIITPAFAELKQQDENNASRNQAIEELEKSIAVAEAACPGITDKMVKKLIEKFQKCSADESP
# Serine/threonine-protein kinase WNK2 (Homo sapiens), sequence (Q9Y3S1 whole entry): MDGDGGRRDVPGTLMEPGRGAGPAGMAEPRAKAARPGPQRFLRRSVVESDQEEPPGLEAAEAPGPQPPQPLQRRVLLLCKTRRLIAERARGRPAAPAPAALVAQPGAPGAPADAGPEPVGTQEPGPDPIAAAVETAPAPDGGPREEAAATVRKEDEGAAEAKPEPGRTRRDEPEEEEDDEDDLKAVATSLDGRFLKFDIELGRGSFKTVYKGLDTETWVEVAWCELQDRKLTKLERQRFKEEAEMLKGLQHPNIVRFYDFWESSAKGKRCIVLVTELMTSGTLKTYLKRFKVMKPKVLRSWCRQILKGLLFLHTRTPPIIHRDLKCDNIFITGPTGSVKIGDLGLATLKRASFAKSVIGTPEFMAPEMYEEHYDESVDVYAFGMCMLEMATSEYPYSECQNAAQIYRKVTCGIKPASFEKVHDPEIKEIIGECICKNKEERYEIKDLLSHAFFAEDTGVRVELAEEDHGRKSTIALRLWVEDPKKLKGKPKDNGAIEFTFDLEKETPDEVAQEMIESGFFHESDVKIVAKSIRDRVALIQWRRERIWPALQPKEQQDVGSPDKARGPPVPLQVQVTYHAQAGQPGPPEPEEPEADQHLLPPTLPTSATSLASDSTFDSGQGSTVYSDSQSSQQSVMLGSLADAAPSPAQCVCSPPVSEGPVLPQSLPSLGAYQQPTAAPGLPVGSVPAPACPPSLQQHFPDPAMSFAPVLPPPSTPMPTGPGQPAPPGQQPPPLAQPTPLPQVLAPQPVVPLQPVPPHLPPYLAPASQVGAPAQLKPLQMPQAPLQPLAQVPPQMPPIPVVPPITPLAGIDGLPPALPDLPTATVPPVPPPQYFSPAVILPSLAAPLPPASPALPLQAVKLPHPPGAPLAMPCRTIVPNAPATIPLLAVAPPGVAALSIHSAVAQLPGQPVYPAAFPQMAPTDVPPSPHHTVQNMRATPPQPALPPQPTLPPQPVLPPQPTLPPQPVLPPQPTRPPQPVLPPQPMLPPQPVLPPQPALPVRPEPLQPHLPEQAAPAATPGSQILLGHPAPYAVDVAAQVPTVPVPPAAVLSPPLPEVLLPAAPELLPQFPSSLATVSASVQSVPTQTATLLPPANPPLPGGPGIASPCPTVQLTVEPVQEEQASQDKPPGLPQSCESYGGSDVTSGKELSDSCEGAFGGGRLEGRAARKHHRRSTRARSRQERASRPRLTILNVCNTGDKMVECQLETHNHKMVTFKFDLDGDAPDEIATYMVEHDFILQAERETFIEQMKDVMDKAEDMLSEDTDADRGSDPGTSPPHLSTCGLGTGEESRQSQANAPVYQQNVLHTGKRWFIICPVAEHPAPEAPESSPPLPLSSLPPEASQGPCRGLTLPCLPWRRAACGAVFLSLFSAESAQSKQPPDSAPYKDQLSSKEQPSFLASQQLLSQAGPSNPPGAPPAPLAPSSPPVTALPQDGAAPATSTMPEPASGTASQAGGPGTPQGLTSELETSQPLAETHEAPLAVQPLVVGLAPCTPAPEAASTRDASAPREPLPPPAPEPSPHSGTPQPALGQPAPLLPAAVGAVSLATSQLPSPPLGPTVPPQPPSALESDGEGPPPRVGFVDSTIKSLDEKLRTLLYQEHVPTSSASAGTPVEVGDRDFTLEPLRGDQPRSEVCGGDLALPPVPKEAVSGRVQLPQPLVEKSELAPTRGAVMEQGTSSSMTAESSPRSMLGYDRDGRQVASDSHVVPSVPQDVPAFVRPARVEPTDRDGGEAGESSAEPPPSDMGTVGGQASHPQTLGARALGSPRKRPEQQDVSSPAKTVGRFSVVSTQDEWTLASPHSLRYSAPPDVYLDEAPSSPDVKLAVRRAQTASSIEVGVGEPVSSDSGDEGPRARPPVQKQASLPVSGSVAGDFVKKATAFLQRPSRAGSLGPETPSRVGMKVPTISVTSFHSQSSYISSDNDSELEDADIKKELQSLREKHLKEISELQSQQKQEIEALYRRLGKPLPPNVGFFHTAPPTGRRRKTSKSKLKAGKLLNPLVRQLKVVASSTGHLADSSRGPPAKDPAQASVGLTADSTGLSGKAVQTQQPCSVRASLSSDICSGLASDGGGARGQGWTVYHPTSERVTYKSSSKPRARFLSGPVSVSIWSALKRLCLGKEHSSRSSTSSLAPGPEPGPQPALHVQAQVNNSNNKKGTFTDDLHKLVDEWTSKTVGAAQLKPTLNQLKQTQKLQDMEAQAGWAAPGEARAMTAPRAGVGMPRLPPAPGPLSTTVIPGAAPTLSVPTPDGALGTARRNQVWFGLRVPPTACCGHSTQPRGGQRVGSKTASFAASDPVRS
# Serine/threonine-protein kinase PAK 4 (Homo sapiens), sequence (O96013 whole entry, looked up): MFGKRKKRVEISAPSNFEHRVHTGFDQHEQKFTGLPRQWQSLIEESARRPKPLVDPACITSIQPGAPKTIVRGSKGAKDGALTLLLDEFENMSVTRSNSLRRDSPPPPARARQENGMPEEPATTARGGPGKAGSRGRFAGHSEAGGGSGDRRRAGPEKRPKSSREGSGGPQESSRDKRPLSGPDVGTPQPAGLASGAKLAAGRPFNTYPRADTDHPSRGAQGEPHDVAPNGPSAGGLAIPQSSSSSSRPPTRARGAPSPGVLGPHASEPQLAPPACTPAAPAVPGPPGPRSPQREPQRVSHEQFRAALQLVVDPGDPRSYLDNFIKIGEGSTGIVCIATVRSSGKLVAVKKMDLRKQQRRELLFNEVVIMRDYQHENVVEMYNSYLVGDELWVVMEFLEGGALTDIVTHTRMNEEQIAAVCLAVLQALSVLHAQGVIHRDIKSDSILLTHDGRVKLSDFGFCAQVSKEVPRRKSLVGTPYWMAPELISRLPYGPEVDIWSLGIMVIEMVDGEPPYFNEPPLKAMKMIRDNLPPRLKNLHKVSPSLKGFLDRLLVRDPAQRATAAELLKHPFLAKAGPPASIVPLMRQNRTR
# Serine/threonine-protein kinase B-raf (Homo sapiens), sequence (P15056 whole entry): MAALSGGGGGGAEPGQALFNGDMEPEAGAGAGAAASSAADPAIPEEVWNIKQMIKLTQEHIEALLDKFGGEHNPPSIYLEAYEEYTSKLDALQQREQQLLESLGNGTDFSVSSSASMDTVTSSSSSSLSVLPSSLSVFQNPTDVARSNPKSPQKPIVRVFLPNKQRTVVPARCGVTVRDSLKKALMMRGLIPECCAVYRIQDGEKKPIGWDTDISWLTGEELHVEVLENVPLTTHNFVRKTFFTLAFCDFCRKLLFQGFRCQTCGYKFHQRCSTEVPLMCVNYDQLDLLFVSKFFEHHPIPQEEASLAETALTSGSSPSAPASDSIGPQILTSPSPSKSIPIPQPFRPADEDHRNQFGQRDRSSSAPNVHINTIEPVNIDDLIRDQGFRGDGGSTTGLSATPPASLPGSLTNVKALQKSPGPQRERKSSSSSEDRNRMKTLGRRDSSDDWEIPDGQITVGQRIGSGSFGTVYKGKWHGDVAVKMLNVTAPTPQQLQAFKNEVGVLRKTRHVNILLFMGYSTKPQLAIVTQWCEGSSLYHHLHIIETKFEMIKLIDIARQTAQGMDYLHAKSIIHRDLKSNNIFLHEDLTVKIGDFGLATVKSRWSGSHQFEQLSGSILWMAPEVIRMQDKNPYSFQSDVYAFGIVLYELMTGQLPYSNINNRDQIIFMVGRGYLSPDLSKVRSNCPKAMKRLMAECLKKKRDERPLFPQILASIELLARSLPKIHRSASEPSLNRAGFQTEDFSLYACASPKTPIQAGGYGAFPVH
# Calcium/calmodulin-dependent protein kinase type II subunit gamma (Homo sapiens), sequence (Q13555 whole entry): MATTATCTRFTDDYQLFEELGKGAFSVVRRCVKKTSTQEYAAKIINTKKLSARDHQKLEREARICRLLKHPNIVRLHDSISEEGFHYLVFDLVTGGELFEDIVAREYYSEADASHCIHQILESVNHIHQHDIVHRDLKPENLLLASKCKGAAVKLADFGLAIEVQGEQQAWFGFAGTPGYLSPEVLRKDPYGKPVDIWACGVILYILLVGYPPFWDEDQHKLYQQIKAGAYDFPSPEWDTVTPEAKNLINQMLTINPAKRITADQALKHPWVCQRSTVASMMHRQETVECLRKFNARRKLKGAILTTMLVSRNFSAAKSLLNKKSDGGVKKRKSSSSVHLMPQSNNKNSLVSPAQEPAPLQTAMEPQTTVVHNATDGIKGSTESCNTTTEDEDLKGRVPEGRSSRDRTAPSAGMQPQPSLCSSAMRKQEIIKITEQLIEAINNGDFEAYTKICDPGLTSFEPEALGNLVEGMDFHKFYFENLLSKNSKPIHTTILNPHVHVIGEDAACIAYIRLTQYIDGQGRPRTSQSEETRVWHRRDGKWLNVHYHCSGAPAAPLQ
# Serine/threonine-protein kinase pim-2 (Homo sapiens), sequence (Q9P1W9 whole entry, looked up): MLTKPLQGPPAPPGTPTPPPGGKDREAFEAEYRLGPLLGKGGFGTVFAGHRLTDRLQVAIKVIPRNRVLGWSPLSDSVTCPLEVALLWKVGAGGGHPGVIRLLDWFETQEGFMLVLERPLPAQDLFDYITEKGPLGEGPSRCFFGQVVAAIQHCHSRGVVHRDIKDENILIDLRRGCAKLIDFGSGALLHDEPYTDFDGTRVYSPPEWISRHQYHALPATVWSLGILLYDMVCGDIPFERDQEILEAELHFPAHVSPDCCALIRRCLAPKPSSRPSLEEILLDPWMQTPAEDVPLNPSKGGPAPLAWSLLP
structure (smiles),measurement,setting,value
O=C(N[C@@H](C1CC1)C(F)(F)F)c1cc(-c2cnn3cc(-c4ccc(F)cc4)cnc23)cs1,inhibition,[1],0%
same,inhibition,[2],0%
same,fold change (FC),[3],0
same,inhibition,[4],3%
same,inhibition,[5],3%
CNC(=O)c1ccccc1Oc1nc(Nc2cc(OC)c(OC)c(OC)c2)ncc1Br,fold change (FC),[6],0.11
same,inhibition,[7],8%
CC(C)[C@H](NC(=O)c1cc(-c2cnn3cc(-c4ccc(OCCN5CCCCC5)cc4)cnc23)cs1)C(F)(F)F,inhibition,[8],22%
same,fold change (FC),[9],0
same,fold change (FC),[10],0.11
same,inhibition,[11],0%

# Source: ChEMBL document CHEMBL5653631, “A Potent and Selective ULK1 Inhibitor Suppresses Autophagy and Sensitizes Cancer Cells to Nutrient Stress” (iScience, 2018)
